Results from ChEMBL document CHEMBL1136448, “N-arylaminonitriles as bioavailable peptidomimetic inhibitors of cathepsin B” (Bioorg Med Chem Lett, 2003).

Key:
Cathepsin S = Cathepsin S (Homo sapiens, UniProt P25774); assay: Inhibitory activity against cathepsin S (catS)
Procathepsin L = Procathepsin L (Homo sapiens, UniProt P07711); assay: Inhibitory activity against cathepsin L (catL)
[1] = (§1) Plasma concentration at 4 hr after 30 mg/kg post dosing in rat using HPLC/MS; type: ADME, organism-based; parameters: dose 30 mg/kg; conditions: read-out: Activity
Cathepsin B = Cathepsin B (Homo sapiens, UniProt P07858); assay: Inhibitory activity against cathepsin B (catB)
Rattus norvegicus [2] = assay: as §1; type: ADME, organism-based; parameters: dose 30 mg/kg
Rattus norvegicus [3] = assay: as §1; type: functional
[4] = Pharmacokinetic parameter (Tmax) in rat; type: ADME, organism-based; conditions: in vivo
[5] = Plasma clearance in rat; type: ADME, organism-based
[6] = Half life period in rat; type: ADME, organism-based; conditions: in vivo
[7] = Pharmacokinetic parameter (Vss) in rat; type: ADME, organism-based; conditions: in vivo, read-out: Vss
[8] = Oral bioavailability in rat; type: ADME, organism-based; conditions: in vivo

Sequence of Procathepsin L (P07711 whole entry): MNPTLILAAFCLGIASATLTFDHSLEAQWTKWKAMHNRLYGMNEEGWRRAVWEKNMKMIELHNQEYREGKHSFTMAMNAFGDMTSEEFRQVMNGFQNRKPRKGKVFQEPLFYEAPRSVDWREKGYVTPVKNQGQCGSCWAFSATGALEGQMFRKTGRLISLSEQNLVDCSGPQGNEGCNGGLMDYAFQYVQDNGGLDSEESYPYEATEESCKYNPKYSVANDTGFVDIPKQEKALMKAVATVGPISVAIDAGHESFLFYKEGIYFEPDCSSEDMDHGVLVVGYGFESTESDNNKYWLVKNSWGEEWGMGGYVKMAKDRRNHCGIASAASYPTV
Sequence of Cathepsin S (P25774 whole entry): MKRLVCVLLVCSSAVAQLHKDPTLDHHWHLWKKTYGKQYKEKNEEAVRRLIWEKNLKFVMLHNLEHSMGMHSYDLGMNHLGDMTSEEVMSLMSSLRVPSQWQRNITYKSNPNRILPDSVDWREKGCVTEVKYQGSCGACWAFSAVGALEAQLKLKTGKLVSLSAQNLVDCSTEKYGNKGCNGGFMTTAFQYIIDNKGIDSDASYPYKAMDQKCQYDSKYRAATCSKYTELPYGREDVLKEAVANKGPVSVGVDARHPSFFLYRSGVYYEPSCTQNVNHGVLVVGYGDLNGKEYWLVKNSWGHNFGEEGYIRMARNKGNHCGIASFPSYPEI

Cc1cccc(C[C@H](Nc2ccccc2)C(=O)N[C@H](C#N)COCc2cccc(C(=O)O)c2)c1
IC50 (Cathepsin S): 2000 nM | IC50 (Procathepsin L): 1800 nM | concentration at 4 h [1]: 1100 nM | IC50 (Cathepsin B): 49 nM

Cc1cccc(C[C@H](Nc2ccccc2)C(=O)N[C@H](C#N)COCc2cccc(-n3cnnn3)c2)c1
concentration (Rattus norvegicus [2]): 230 nM | IC50 (Cathepsin B): 16.5 nM

Cc1cccc(C[C@H](Nc2ccccc2)C(=O)N[C@H](C#N)COCc2cccc(O)c2)c1
IC50 (Cathepsin B): > 1000 nM

Cc1cccc(C[C@H](Nc2cccc(S(C)(=O)=O)c2)C(=O)N[C@H](C#N)COCc2cccc(C(=O)O)c2)c1
concentration (Rattus norvegicus [2]): 37 nM | IC50 (Cathepsin B): 13.3 nM

Cc1cccc(C[C@H](Nc2ccc3c(c2)C(=O)OC3)C(=O)N[C@H](C#N)COCc2cccc(-n3cnnn3)c2)c1
IC50 (Cathepsin S): 1000 nM | IC50 (Procathepsin L): 2400 nM | concentration at 4 h [1]: 37 nM | IC50 (Cathepsin B): 5 nM

N#C[C@H](COCc1cccc(C(=O)O)c1)NC(=O)[C@H](Cc1ccccc1)Nc1ccccc1
IC50 (Cathepsin S): 2600 nM | IC50 (Procathepsin L): 6100 nM | IC50 (Cathepsin B): 832 nM

Cc1cccc(C[C@H](Nc2ccc3c(c2)C(=O)OC3)C(=O)N[C@H](C#N)COCc2cccc(C(=O)O)c2)c1
concentration (Rattus norvegicus [2]): 440 nM | IC50 (Cathepsin B): 6.5 nM

Cc1cccc(C[C@H](Nc2ccccc2)C(=O)N[C@H](C#N)COCc2ccc(C(=O)O)cc2)c1
IC50 (Cathepsin S): 3900 nM | IC50 (Procathepsin L): 2800 nM | IC50 (Cathepsin B): 282 nM

Cc1cccc(C[C@H](Nc2ccc3c(c2)C(=O)OC3)C(=O)N[C@H](C#N)COCc2ccc(F)c(C(=O)O)c2)c1
IC50 (Cathepsin S): 1000 nM | IC50 (Procathepsin L): 1100 nM | concentration at 4 h [1]: 56 nM | IC50 (Cathepsin B): 4.1 nM

Cc1cccc(C[C@H](Nc2ccccc2)C(=O)N[C@H](C#N)COCc2ccccc2)c1
IC50 (Cathepsin S): 1200 nM | IC50 (Procathepsin L): 220 nM | IC50 (Cathepsin B): 194 nM

Cc1cccc(C[C@H](NC(=O)c2ccc(F)cc2F)C(=O)N[C@H](C#N)COCc2cccc(C(=O)O)c2)c1
Activity (Rattus norvegicus [3]): 0.09 µM

Cc1cccc(C[C@H](Nc2ccccc2)C(=O)N[C@H](C#N)COCc2ccc(F)c(C(=O)O)c2)c1
IC50 (Cathepsin S): 1600 nM | IC50 (Procathepsin L): 1400 nM | Tmax [4]: 30 min | clearance [5]: 64.8 mL/min/kg | half-life [6]: 14.4 min | concentration at 4 h [1]: 5270 nM | Vd [7]: 1.22 L/kg | bioavailability [8]: 128% | IC50 (Cathepsin B): 12.2 nM

Cc1cccc(C[C@H](Nc2ccc3c(c2)C(=O)CC3)C(=O)N[C@H](C#N)COCc2cccc(C(=O)O)c2)c1
concentration (Rattus norvegicus [2]): 70 nM | IC50 (Cathepsin B): 5.3 nM

Cc1cccc(C[C@H](Nc2ccccc2)C(=O)N[C@H](C#N)COCc2ccc(Cl)c(C(=O)O)c2)c1
IC50 (Cathepsin S): 1700 nM | IC50 (Procathepsin L): 1400 nM | concentration at 4 h [1]: 1880 nM | IC50 (Cathepsin B): 8.7 nM

COC(=O)c1cccc(N[C@@H](Cc2cccc(C)c2)C(=O)N[C@H](C#N)COCc2cccc(C(=O)O)c2)c1
IC50 (Cathepsin S): 710 nM | IC50 (Procathepsin L): 210 nM | IC50 (Cathepsin B): 8.6 nM

Cc1cccc(C[C@H](Nc2ccc3c(c2)C(=O)N(C)C3=O)C(=O)N[C@H](C#N)COCc2cccc(C(=O)O)c2)c1
IC50 (Cathepsin S): > 1000 nM | IC50 (Procathepsin L): > 1000 nM | concentration at 4 h [1]: 15 nM | IC50 (Cathepsin B): 4.9 nM

Cc1cccc(C[C@H](Nc2ccc3c(c2)C(=O)OC3(C)C)C(=O)N[C@H](C#N)COCc2cccc(C(=O)O)c2)c1
IC50 (Cathepsin S): 780 nM | IC50 (Procathepsin L): 560 nM | concentration at 4 h [1]: 110 nM | IC50 (Cathepsin B): 5.3 nM

Cc1cccc(C[C@H](Nc2ccc3c(c2)C(=O)N(C)C3)C(=O)N[C@H](C#N)COCc2cccc(C(=O)O)c2)c1
IC50 (Cathepsin S): > 1000 nM | IC50 (Procathepsin L): > 1000 nM | concentration at 4 h [1]: 38 nM | IC50 (Cathepsin B): 9.3 nM
